From paper PMC8800111 (The Journal of Biological Chemistry, 2021)

Tests used:
Assay type in all cases: cell-based
[1] = molecular target: proteins of U3A human fibrosarcoma cells (4462 proteins detected) (Homo sapiens, UniProt Q9Y2H0); details: protein DLGAP4, U3A cells
[2] = molecular target: proteins of U3A human fibrosarcoma cells (4462 proteins detected) (Homo sapiens, UniProt Q9BUJ2); details: protein HNRNPUL1, U3A cells
[3] = molecular target: proteins of U3A human fibrosarcoma cells (4462 proteins detected) (Homo sapiens, UniProt Q9UIC8); details: protein LCMT1, U3A cells
[4] = molecular target: proteins of U3A human fibrosarcoma cells (4462 proteins detected) (Homo sapiens, UniProt P01040); details: protein CSTA, U3A cells
[5] = molecular target: proteins of U3A human fibrosarcoma cells (4462 proteins detected) (Homo sapiens, UniProt Q7Z6B0); details: protein CCDC91, U3A cells
[6] = molecular target: proteins of U3A human fibrosarcoma cells (4462 proteins detected) (Homo sapiens, UniProt Q8IYW5); details: protein RNF168; U3A cells
[7] = molecular target: proteins of U3A human fibrosarcoma cells (4462 proteins detected) (Homo sapiens, UniProt Q9NXR8); details: protein ING3, U3A cells
[8] = molecular target: proteins of U3A human fibrosarcoma cells (4462 proteins detected) (Homo sapiens, UniProt Q15459); details: protein SF3A1; U3A cells
[9] = molecular target: proteins of U3A human fibrosarcoma cells (4462 proteins detected) (Homo sapiens, UniProt P49368); details: protein CCT3; U3A cells
[10] = molecular target: proteins of U3A human fibrosarcoma cells (4462 proteins detected) (Homo sapiens, UniProt P62906); details: protein RPL10A; U3A cells
[11] = molecular target: proteins of U3A human fibrosarcoma cells (4462 proteins detected) (Homo sapiens, UniProt P40123); details: protein CAP2; U3A cells
[12] = molecular target: proteins of U3A human fibrosarcoma cells (4462 proteins detected) (Homo sapiens, UniProt Q15365); details: protein PCBP1; U3A cells
[13] = molecular target: proteins of U3A human fibrosarcoma cells (4462 proteins detected) (Homo sapiens, UniProt O75533); details: protein SF3B1; U3A cells
[14] = molecular target: proteins of U3A human fibrosarcoma cells (4462 proteins detected) (Homo sapiens, UniProt Q8WTT2); details: protein NOC3L; U3A cells
[15] = molecular target: proteins of U3A human fibrosarcoma cells (4462 proteins detected) (Homo sapiens, UniProt P28799); details: protein GRN; U3A cells
[16] = molecular target: proteins of U3A human fibrosarcoma cells (4462 proteins detected) (Homo sapiens, UniProt Q9HCJ0); details: protein TNRC6C, U3A cells
[17] = molecular target: proteins of U3A human fibrosarcoma cells (4462 proteins detected) (Homo sapiens, UniProt Q9H8M7); details: protein FAM188A, U3A cells
[18] = molecular target: proteins of U3A human fibrosarcoma cells (4462 proteins detected) (Homo sapiens, UniProt Q9UJ68); details: protein MSRA, U3A cells
[19] = molecular target: proteins of U3A human fibrosarcoma cells (4462 proteins detected) (Homo sapiens, UniProt P11717); details: protein IGF2R; soluble abundance after heat, U3A cells
[20] = molecular target: proteins of U3A human fibrosarcoma cells (4462 proteins detected) (Homo sapiens, UniProt Q96EY8); details: protein MMAB; U3A cells
[21] = molecular target: proteins of U3A human fibrosarcoma cells (4462 proteins detected) (Homo sapiens, UniProt Q92530); details: protein PSMF1; soluble abundance after heat, U3A cells
[22] = molecular target: proteins of U3A human fibrosarcoma cells (4462 proteins detected) (Homo sapiens, UniProt Q96D46); details: protein NMD3; soluble abundance after heat, U3A cells
[23] = molecular target: proteins of U3A human fibrosarcoma cells (4462 proteins detected) (Homo sapiens, UniProt P13796); details: protein LCP1; soluble abundance after heat, U3A cells
[24] = molecular target: proteins of U3A human fibrosarcoma cells (4462 proteins detected) (Homo sapiens, UniProt P17987); details: protein TCP1; U3A cells
[25] = molecular target: proteins of U3A human fibrosarcoma cells (4462 proteins detected) (Homo sapiens, UniProt Q9NVU7); details: protein SDAD1; soluble abundance after heat, U3A cells
[26] = molecular target: proteins of U3A human fibrosarcoma cells (4462 proteins detected) (Homo sapiens, UniProt P78559); details: protein MAP1A, U3A cells
[27] = molecular target: proteins of U3A human fibrosarcoma cells (4462 proteins detected) (Homo sapiens, UniProt P26583); details: protein HMGB2; U3A, 10 μM, 2 h
[28] = molecular target: proteins of U3A human fibrosarcoma cells (4462 proteins detected) (Homo sapiens, UniProt Q8TAQ2); details: protein SMARCC2; soluble abundance after heat, U3A cells
[29] = molecular target: proteins of U3A human fibrosarcoma cells (4462 proteins detected) (Homo sapiens, UniProt Q9NTX5); details: protein ECHDC1; U3A cells
[30] = molecular target: proteins of U3A human fibrosarcoma cells (4462 proteins detected) (Homo sapiens, UniProt P20839); details: protein IMPDH1, U3A cells

proteins of U3A human fibrosarcoma cells (4462 proteins detected) (Homo sapiens, UniProt P11717), sequence (P11717 41-2491): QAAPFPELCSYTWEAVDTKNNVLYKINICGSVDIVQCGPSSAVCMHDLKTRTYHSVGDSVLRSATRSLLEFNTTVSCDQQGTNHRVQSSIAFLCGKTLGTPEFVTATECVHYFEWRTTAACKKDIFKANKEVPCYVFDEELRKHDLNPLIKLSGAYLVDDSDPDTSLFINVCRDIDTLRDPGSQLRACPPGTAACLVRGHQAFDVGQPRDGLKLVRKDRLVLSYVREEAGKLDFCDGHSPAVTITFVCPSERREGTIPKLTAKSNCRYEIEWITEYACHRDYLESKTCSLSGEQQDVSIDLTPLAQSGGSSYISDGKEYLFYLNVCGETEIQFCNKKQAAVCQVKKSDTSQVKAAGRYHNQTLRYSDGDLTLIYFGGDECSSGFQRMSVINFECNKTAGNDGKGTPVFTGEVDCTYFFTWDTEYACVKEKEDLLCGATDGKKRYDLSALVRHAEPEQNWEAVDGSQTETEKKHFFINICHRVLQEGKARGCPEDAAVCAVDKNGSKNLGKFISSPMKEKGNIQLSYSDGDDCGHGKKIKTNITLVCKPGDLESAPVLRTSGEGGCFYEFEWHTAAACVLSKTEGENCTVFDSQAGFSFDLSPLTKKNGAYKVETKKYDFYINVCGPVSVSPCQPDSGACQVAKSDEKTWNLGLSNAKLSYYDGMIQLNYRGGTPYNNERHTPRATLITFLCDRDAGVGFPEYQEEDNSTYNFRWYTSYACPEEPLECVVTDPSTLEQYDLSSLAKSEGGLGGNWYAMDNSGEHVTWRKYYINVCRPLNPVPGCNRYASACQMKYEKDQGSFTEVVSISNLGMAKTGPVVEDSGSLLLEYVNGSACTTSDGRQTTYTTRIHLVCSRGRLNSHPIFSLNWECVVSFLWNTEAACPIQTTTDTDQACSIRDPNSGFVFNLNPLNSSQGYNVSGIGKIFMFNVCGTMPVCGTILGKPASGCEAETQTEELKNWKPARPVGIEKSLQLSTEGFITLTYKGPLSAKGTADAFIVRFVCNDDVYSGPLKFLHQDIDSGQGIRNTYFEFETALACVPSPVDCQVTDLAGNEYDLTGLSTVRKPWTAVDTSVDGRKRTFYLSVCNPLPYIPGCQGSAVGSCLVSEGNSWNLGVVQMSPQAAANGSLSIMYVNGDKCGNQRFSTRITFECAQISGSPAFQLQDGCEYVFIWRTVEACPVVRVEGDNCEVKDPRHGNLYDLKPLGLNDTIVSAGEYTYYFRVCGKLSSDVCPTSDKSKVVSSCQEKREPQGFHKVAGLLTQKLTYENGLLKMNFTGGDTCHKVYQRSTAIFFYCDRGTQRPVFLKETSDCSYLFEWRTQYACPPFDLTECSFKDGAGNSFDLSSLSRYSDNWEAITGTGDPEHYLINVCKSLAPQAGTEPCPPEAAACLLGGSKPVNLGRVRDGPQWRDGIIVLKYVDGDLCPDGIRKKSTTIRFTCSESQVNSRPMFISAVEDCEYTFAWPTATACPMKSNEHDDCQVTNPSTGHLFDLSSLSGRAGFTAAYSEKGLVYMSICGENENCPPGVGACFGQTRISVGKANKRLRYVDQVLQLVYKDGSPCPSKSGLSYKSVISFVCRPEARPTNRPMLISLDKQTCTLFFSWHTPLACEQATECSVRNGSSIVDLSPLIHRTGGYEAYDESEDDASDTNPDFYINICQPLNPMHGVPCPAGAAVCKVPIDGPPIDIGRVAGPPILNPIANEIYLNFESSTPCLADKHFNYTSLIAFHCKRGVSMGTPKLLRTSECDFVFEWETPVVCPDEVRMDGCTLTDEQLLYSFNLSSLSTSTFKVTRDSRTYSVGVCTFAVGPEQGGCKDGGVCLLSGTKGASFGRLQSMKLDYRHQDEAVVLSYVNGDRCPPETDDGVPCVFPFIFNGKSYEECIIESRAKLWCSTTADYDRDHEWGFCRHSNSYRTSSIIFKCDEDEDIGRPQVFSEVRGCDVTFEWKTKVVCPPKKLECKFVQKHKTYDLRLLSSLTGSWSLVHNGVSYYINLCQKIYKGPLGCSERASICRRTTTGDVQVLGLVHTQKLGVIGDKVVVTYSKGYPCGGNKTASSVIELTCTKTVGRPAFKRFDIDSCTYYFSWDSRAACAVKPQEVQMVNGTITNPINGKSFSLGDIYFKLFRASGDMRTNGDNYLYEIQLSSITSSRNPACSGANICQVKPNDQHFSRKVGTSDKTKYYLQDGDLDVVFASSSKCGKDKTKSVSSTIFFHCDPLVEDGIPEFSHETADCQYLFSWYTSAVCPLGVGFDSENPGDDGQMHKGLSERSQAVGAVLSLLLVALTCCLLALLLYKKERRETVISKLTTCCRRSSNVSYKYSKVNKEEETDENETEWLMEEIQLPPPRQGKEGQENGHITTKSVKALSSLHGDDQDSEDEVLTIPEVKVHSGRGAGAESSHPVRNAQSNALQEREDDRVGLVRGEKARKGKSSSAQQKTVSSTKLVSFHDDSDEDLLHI
proteins of U3A human fibrosarcoma cells (4462 proteins detected) (Homo sapiens, UniProt Q9H8M7), sequence (Q9H8M7 whole entry): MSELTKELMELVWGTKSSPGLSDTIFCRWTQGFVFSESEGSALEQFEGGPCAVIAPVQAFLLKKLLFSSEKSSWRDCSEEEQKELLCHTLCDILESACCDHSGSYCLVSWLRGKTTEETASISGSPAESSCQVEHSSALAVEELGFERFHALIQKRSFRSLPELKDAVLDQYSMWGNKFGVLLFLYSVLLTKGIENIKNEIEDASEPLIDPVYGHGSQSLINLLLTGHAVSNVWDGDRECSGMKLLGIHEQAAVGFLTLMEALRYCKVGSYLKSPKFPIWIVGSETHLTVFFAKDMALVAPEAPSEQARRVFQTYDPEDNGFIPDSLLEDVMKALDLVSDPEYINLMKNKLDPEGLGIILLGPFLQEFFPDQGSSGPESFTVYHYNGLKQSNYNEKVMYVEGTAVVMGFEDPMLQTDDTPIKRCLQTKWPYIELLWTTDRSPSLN
proteins of U3A human fibrosarcoma cells (4462 proteins detected) (Homo sapiens, UniProt Q9Y2H0), sequence (Q9Y2H0 whole entry): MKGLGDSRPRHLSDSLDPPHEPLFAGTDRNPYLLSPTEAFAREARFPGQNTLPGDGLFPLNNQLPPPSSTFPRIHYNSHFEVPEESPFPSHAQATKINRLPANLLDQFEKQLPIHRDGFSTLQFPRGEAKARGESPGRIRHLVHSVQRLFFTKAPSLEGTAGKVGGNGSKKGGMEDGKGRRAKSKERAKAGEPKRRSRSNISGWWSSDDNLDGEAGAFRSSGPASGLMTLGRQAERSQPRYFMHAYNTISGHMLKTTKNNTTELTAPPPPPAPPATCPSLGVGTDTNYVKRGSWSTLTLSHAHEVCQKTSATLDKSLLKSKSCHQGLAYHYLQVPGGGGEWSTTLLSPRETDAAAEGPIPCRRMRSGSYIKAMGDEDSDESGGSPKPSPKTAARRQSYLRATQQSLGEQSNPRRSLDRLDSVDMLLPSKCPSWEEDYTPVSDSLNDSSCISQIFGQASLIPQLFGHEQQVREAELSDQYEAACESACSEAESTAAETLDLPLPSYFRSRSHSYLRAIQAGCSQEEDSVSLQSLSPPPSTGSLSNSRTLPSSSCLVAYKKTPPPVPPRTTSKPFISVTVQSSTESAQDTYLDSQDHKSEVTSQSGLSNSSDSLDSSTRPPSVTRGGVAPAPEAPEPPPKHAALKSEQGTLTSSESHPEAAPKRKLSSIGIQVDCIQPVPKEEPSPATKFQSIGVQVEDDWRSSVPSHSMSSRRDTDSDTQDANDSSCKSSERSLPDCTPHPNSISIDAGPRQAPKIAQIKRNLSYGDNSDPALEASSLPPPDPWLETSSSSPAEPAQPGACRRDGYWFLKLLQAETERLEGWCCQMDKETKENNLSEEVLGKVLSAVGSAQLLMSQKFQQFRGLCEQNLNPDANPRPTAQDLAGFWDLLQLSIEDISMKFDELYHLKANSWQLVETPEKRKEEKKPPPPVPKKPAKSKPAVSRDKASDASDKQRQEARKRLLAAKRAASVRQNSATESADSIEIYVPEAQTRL
proteins of U3A human fibrosarcoma cells (4462 proteins detected) (Homo sapiens, UniProt P13796), sequence (P13796 whole entry): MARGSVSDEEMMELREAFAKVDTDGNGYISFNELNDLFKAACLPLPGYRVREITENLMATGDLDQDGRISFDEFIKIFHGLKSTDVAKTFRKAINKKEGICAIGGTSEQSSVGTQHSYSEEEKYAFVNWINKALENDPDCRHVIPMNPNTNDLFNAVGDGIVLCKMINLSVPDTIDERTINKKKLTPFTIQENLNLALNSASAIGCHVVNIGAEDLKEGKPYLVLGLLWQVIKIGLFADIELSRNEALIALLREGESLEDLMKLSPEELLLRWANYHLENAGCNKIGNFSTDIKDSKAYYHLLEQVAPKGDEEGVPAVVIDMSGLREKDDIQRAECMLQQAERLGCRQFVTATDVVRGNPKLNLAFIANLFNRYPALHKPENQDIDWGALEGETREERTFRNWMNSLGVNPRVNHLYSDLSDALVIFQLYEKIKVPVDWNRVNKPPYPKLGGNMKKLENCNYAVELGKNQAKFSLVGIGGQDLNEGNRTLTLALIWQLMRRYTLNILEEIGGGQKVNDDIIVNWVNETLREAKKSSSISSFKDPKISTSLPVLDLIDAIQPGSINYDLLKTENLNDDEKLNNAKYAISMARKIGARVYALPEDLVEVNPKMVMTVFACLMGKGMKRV
proteins of U3A human fibrosarcoma cells (4462 proteins detected) (Homo sapiens, UniProt Q92530), sequence (Q92530 whole entry): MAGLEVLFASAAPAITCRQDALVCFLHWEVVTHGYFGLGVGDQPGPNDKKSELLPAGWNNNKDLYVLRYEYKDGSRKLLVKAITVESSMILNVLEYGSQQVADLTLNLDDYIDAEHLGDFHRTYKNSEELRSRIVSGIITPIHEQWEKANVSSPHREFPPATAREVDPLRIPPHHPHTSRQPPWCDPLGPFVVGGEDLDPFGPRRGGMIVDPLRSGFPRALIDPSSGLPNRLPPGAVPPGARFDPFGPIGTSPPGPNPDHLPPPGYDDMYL
proteins of U3A human fibrosarcoma cells (4462 proteins detected) (Homo sapiens, UniProt Q9NTX5), sequence (Q9NTX5 whole entry): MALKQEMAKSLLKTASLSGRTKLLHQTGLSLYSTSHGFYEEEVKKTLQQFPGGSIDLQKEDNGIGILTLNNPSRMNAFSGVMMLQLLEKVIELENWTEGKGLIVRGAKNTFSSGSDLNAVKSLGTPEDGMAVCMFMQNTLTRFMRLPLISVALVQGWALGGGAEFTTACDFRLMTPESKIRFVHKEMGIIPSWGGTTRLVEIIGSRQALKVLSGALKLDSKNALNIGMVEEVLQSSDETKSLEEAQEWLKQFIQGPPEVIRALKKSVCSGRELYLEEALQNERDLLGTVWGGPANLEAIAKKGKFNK

## CCc1nc(N)nc(N)c1-c1ccc(Cl)cc1 [pyrimethamine]
[1]
  Log2 (PYR/DMSO): -0.04
[2]
  Log2 (PYR/DMSO): -0.04
[3]
  Log2 (PYR/DMSO): -0.04
[4]
  Log2 (PYR/DMSO): -0.04
[5]
  Log2 (PYR/DMSO): -0.04
[6]
  Log2 (PYR/DMSO): 0.17
[7]
  Log2 (PYR/DMSO): -0.04
[8]
  Log2 (PYR/DMSO): 0.16
[9]
  Log2 (PYR/DMSO): 0.17
[10]
  Log2 (PYR/DMSO): 0.17
[11]
  Log2 (PYR/DMSO): 0.21
[12]
  Log2 (PYR/DMSO): 0.18
[13]
  Log2 (PYR/DMSO): 0.16
[14]
  Log2 (PYR/DMSO): 0.16
[15]
  Log2 (PYR/DMSO): 0.21
[16]
  Log2 (PYR/DMSO): -0.04
[17]
  Log2 (PYR/DMSO): -0.04
[18]
  Log2 (PYR/DMSO): -0.04
[19]
  Log2 (PYR/DMSO): 0.15
[20]
  Log2 (PYR/DMSO): 0.19
[21]
  Log2 (PYR/DMSO): 0.13
[22]
  Log2 (PYR/DMSO): 0.13
[23]
  Log2 (PYR/DMSO): 0.15
[24]
  Log2 (PYR/DMSO): 0.21
[25]
  Log2 (PYR/DMSO): 0.15
[26]
  Log2 (PYR/DMSO): -0.04
[27]
  Log2 (PYR/DMSO), HMGB2: -0.14
[28]
  Log2 (PYR/DMSO): 0.13
[29]
  Log2 (PYR/DMSO): 0.18
[30]
  Log2 (PYR/DMSO): -0.04
